Reference: US9079861B2, “Cyclic urea inhibitors of 11β-hydroxysteroid dehydrogenase 1” (Vitae Pharmaceuticals, Inc., priority 2007, dated 2015)
pIC50: −log10 of the molar value. Read-outs that look alike come from different tables or passages of the source.

Biological target: T1, human 11β-HSD1 (Homo sapiens, UniProt P28845)
T1 construct: expressed in transfected cells; host or cells: CHO cells (microsomes)
Assay: Biological Test Example 1: inhibition of microsomal preparation of 11β-HSD1 (SPA)
Assay type: biochemical
Details: for inhibition at 0.1 µM: read-out: Average % inhibition at 100 nM; for pIC50: microsomes from CHO cells overexpressing human 11β-HSD1; for Average % inhibition at 100 nM: 0.1 µM
Method: The inhibition of microsomal preparation of 11β-HSD1 by compounds of the invention was measured essentially as previously described (K. Solly, S. S. Mundt, H. J. Zokian, G. J. Ding, A. Hermanowski-Vosatka, B. Strulovici, and W. Zheng, High-Throughput Screening of 11-Beta-Hydroxysteroid Dehydrogenase Type 1 in Scintillation Proximity Assay Format. Assay Drug Dev Technol 3 (2005) 377-384). All reactions were carried out at room temperature in 96 well clear flexible PET Microbeta plates (PerkinElmer). The assay begins by dispensing 49 μl of substrate solution (50 mM HEPES, pH 7.4, 100 mM KCl, 5 mM NaCl, 2 mM MgCl2, 2 mM NADPH and 160 nM [^3H]cortisone (1 Ci/mmol)) and mixing in 1 μL of the test compounds in DMSO previously diluted in half-log increments (8 points) starting at 0.1 mM. After a 10 minute pre-incubation, 50 μL of enzyme solution containing microsomes isolated from CHO cells overexpressing human 11β-HSD1 (10-20 μg/ml of total protein) was added, and the plates were incubated for 90 minutes at room temperature. The reaction was stopped by adding 50 μl of the SPA beads suspension containing 10 μM 18β-glycyrrhetinic acid, 5 mg/ml protein A coated YSi SPA beads (GE Healthcare) and 3.3 μg/ml of anti-cortisol antibody (East Coast Biologics) in Superblock buffer (Bio-Rad). The plates were shaken for 120 minutes at room temperature, and the SPA signal corresponding to [^3H]cortisol was measured on a Microbeta plate reader.

T1 sequence (P28845 whole entry): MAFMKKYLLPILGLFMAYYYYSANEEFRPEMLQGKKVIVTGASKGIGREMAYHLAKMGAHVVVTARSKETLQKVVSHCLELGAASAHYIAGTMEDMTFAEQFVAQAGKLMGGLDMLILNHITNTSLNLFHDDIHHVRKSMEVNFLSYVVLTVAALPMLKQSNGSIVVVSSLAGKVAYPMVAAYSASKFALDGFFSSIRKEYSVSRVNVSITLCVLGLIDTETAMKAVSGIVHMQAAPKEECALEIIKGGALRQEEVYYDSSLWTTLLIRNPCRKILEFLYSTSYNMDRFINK

Compound	inhibition at 0.1 µM (at 100 nM)	pIC50 (read-out: IC50 Range)	further results
C[C@@H](c1ccc(Br)cc1)N1CC[C@@](CCCO)(c2ccc(F)cc2)N(C)C1=O (single isomer, unassigned) [Example 11 Isomer 2]	26.1%	< 7.00	–
C[C@@H](c1ccc(Br)cc1)N1CC[C@](CCCO)(c2ccc(F)cc2)N(C)C1=O (single isomer, unassigned) [Example 11 Isomer 1]	64.4%	> 7.00	–
C[C@@H](c1ccc(-c2ccc(F)cc2)cc1)N1CC[C@@](CC(O)CO)(c2ccc(F)cc2)NC1=O (single isomer, unassigned) [Example 9 Isomer 3]	–	> 7.00	Average % inhibition at 100 nM (at 100 nM): 38.5%
C[C@@H](c1ccc(Br)cc1)N1CC[C@](CCCNS(C)(=O)=O)(c2ccc(F)cc2)NC1=O [Example 19, N-(3-((R)-1-((S)-1-(4-bromophenyl)ethyl)-4-(4-fluorophenyl)-2-oxohexahydropyrimidin-4-yl)propyl)methanesulfonamide]	–	> 7.00	inhibition at 0.1 µM: 96%
C[C@@H](c1ccc(-c2ccn(C)c(=O)c2)cc1)N1CC[C@](CC(C)(C)O)(c2ccccc2)NC1=O [Example 21, (S)-4-(2-hydroxy-2-methylpropyl)-1-((S)-1-(4-(1-methyl-2-oxo-1,2-dihydropyridin-4-yl)phenyl)ethyl)-4-phenyltetrahydropyrimidin-2(1H)-one]	93.9%	> 7.00	–
C[C@@H](c1ccc(Br)cc1)N1CC[C@](CC(C)(C)O)(c2ccccc2)NC1=O [Example 20, (S)-1-((S)-1-(4-bromophenyl)ethyl)-4-(2-hydroxy-2-methylpropyl)-4-phenyltetrahydropyrimidin-2(1H)-one]	94.4%	> 7.00	–
COc1ccc([C@H](C)N2CC[C@](CCCO)(c3ccc(F)cc3)NC2=O)cc1 [Example 16, (R)-4-(4-fluorophenyl)-4-(3-hydroxypropyl)-1-((S)-1-(4-methoxyphenyl)ethyl)tetrahydropyrimidin-2(1H)-one]	96.1%	> 7.00	–
C[C@@H](c1ccc(-c2ccc(F)cc2F)cc1)N1CC[C@](CC(O)CO)(c2ccc(F)cc2)NC1=O (single isomer, unassigned) [Example 8 Isomer 2]	–	> 7.00	Average % inhibition at 100 nM (at 100 nM): 94.8%
C[C@@H](c1ccc(-c2ccc(F)cc2)cc1)N1CC[C@@](CCCO)(c2ccccc2)NC1=O (single isomer, unassigned) [Example 14 Isomer 2]	58%	> 7.00	–
C=CC[C@@]1(c2ccc(F)cc2)CCN([C@@H](C)c2ccc(Br)cc2)C(=O)N1C (single isomer, unassigned) [Example 3 Isomer 2]	–	> 7.00	inhibition at 0.1 µM: 60.5%
C[C@@H](c1ccc(-c2ccc(F)cc2F)cc1)N1CC[C@](CCCO)(c2ccc(F)cc2)NC1=O (single isomer, unassigned) [Example 7 Isomer 1]	94.8%	> 7.00	–
C[C@@H](c1ccc(Cl)cc1)N1CC[C@](CCO)(c2ccc(F)cc2)NC1=O [Example 12, (S)-1-((S)-1-(4-chlorophenyl)ethyl)-4-(4-fluorophenyl)-4-(2-hydroxyethyl)tetrahydropyrimidin-2(1H)-one]	96.9%	> 7.00	–
C[C@@H](C1CCCCC1)N1CC[C@](CCCO)(c2ccccc2)N(C)C1=O [Example 22, (R)-1-((S)-1-cyclohexylethyl)-4-(3-hydroxypropyl)-3-methyl-4-phenyltetrahydropyrimidin-2(1H)-one]	30%	< 7.00	–
Cc1cccc(N2CC[C@](C)(c3ccccc3)NC2=O)c1 [Example 1, (R)-4-methyl-4-phenyl-1-m-tolyltetrahydropyrimidin-2(1H)-one]	–	–	pIC50 (IC50 Range): 6.00 to 7.00; inhibition at 0.1111 µM (read-out: Average % inhibition at 111.1 nM): 49.4%
C[C@@H](c1ccc(-c2ccc(F)cc2F)cc1)N1CC[C@@](CCO)(c2ccc(F)cc2)NC1=O (single isomer, unassigned) [Example 6 Isomer 2]	47.7%	> 7.00	–
C[C@@H](c1ccc(Br)cc1)N1CC[C@](CCCO)(c2ccc(F)cc2)NC1=O [Example 18, (R)-1-((S)-1-(4-bromophenyl)ethyl)-4-(4-fluorophenyl)-4-(3-hydroxypropyl)tetrahydropyrimidin-2(1H)-one]	97.5%	> 7.00	–

Compound	inhibition at 0.1 µM (at 100 nM)	pIC50 (read-out: IC50 Range)	further results
C[C@@H](c1ccc(-c2ccc(F)cc2)cc1)N1CC[C@@](CCCO)(c2ccc(F)cc2)NC1=O (single isomer, unassigned) [Example 10 Isomer 2]	54.2%	> 7.00	–
C[C@@H](c1ccc(-c2ccc(F)cc2)cc1)N1CC[C@](CCCO)(c2ccccc2)NC1=O (single isomer, unassigned) [Example 14 Isomer 1]	95.5%	> 7.00	–
C[C@@H](c1ccc(-c2ccc(F)cc2)cc1)N1CC[C@](CC(O)CO)(c2ccc(F)cc2)NC1=O (single isomer, unassigned) [Example 9 Isomer 1]	94.5%	> 7.00	–
C[C@@H](c1ccc(-c2ccc(F)cc2F)cc1)N1CC[C@](CC(O)CO)(c2ccc(F)cc2)NC1=O (single isomer, unassigned) [Example 8 Isomer 1]	96.3%	> 7.00	–
C[C@@H](c1ccc(-c2ccc(F)cc2)cc1)N1CC[C@@](CC(O)CO)(c2ccc(F)cc2)NC1=O (single isomer, unassigned) [Example 9 Isomer 4]	–	< 7.00	Average % inhibition at 100 nM (at 100 nM): 16.5%
C[C@@H](c1ccc(Cl)cc1)N1CC[C@](CCCO)(c2ccc(F)cc2)NC1=O [Example 13, 1-((1S)-1-(4-chlorophenyl)ethyl)-4-(4-fluorophenyl)-4-(3-hydroxypropyl)tetrahydropyrimidin-2(1H)-one]	96.1%	> 7.00	–
C[C@@H](c1ccc(Br)cc1)N1CC[C@](CC(C)(C)C#N)(c2ccccc2)NC1=O [Example 23, 3-((R)-1-((S)-1-(4-bromophenyl)ethyl)-2-oxo-4-phenylhexahydropyrimidin-4-yl)-2,2-dimethylpropanenitrile]	95.8%	> 7.00	–
C[C@@H](C1CCCCC1)N1CC[C@](CCCO)(c2ccccc2)NC1=O [Example 15, (R)-1-((S)-1-cyclohexylethyl)-4-(3-hydroxypropyl)-4-phenyltetrahydropyrimidin-2(1H)-one]	96.1%	> 7.00	–
C=CC[C@]1(c2ccc(F)cc2)CCN([C@@H](C)c2ccc(Br)cc2)C(=O)N1C (single isomer, unassigned) [Example 3 Isomer 1]	–	> 7.00	inhibition at 0.1 µM: 51.2%
C[C@@H](c1ccc(-c2ccc(F)cc2F)cc1)N1CC[C@@](CCCO)(c2ccc(F)cc2)NC1=O (single isomer, unassigned) [Example 7 Isomer 2]	71%	> 7.00	–
C[C@@H](c1ccc(-c2ccc(F)cc2F)cc1)N1CC[C@](CCO)(c2ccc(F)cc2)NC1=O (single isomer, unassigned) [Example 6 Isomer 1]	97.2%	> 7.00	–
C=CC[C@@]1(c2ccc(F)cc2)CCN([C@@H](C)c2ccc(Br)cc2)C(=O)N1 (single isomer, unassigned) [Example 2 Isomer 2]	–	–	pIC50 (IC50 Range): > 7.00; inhibition at 0.1 µM: 69.5%
C[C@@H](c1ccc(-c2ccc(F)cc2)cc1)N1CC[C@](CC(O)CO)(c2ccc(F)cc2)NC1=O (single isomer, unassigned) [Example 9 Isomer 2]	–	> 7.00	Average % inhibition at 100 nM (at 100 nM): 93.5%
C[C@@H](c1ccc(-c2ccc(F)cc2)cc1)N1CC[C@](CCCO)(c2ccc(F)cc2)NC1=O (single isomer, unassigned) [Example 10 Isomer 1]	102%	> 7.00	–
COc1ccc([C@H](C)N2CC[C@](CCO)(c3ccc(F)cc3)NC2=O)cc1 [Example 17, (S)-4-(4-fluorophenyl)-4-(2-hydroxyethyl)-1-((S)-1-(4-methoxyphenyl)ethyl)tetrahydropyrimidin-2(1H)-one]	94.3%	> 7.00	–
